pIC50: −log10 of the molar value.
Target: T1, mGluR5 receptor (pig) (Sus scrofa, UniProt I3LUI7)
T1 construct: 450 μg protein from brain homogenate is incubated with 5 nM ^3[H]-MPEP; from tissue; host or cells: pig brain halves without medulla, cerebellum and pons
Test: [3H]-MPEP bond in the mGluR5 receptor bond assay (pig brain homogenate)
Format: binding
Conditions: 5 nM [3H]-MPEP; for inhibition at 10 µM: 10 μM test compound, 450 μg protein pig brain homogenate, 60 min room temperature; for pIC50: pig brain homogenate
Description: I. Method for Determining the Inhibition of the [^3H]-MPEP Bond in the mGluR5 Receptor Bond Assay
Pig brain homogenate is produced by homogenisation (Polytron PT 3000, Kinematica AG, 10,000 rpm for 90 seconds) of pig brain halves without medulla, cerebellum and pons in buffer pH 8.0 (30 mM Hepes, Sigma, order no. H3375+1 tablet complete to 100 ml, Roche Diagnostics, order no. 1836145) in the ratio 1:20 (brain weight/volume) and differential centrifugation at 900×g and 40,000×g. In each case, 450 μg protein from brain homogenate is incubated with 5 nM ^3[H]-MPEP (Tocris, order no. […]
Thereafter, the batches are filtered with the help of a Brandel Cell Harvester (Brandel, TYP Robotic 9600) on unifilter plates with glass fibre filter mats (Perkin Elmer, order no. 6005177) and subsequently washed with buffer (as above) 3 times with in each case 250 μl per sample. The filter plates are subsequently dried for 60 min at 55° C. 30 μL Ultima Gold™ scintillator (Packard BioScience, order no. 6013159) is subsequently added per well and the samples are measured after 3 hours on the β-counter (Mikrobeta, Perkin Elmer). The unspecific bond is determined by addition of 10 μM MPEP (Tocris, order no. 1212).

T1 sequence (I3LUI7 19-1212): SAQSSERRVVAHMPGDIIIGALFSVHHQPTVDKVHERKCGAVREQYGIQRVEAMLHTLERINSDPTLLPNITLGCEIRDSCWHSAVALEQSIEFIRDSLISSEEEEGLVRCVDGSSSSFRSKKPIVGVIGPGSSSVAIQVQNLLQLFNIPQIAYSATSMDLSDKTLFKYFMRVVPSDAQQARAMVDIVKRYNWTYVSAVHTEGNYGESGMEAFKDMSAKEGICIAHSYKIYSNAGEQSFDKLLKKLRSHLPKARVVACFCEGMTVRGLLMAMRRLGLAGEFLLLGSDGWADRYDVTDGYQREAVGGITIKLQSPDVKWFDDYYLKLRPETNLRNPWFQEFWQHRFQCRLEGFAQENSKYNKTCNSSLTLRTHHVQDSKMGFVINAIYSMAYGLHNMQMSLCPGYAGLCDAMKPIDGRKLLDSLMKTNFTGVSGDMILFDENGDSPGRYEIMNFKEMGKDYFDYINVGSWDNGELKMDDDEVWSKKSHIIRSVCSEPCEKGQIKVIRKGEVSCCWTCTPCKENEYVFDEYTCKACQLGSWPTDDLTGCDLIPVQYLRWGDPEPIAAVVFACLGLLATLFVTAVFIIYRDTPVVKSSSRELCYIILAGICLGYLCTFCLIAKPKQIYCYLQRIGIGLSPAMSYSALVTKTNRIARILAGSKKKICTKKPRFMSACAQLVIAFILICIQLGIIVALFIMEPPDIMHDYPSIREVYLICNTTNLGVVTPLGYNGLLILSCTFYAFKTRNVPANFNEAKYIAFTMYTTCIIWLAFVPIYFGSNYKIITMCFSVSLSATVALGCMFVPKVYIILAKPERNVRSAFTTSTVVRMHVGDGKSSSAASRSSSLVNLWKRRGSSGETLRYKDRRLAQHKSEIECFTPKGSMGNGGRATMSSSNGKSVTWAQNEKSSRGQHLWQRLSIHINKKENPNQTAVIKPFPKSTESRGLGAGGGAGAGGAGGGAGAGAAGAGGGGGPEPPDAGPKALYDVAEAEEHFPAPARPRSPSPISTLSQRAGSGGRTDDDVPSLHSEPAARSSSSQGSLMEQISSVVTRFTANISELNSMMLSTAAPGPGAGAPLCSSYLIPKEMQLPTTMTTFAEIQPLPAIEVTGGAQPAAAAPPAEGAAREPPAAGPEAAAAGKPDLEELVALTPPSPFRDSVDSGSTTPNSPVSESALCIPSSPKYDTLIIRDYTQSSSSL

Row | SMILES | inhibition at 10 µM [%] | pIC50
1 | O=C(C#Cc1cccs1)NCCc1ccc(Cl)c(Cl)c1 [Example 103, N-(3,4-dichlorophenethyl)-3-(thiophene-2-yl)propiolamide] | 88 | 
2 | N#Cc1cccc(C#CC(=O)NCCc2ccc(Cl)c(Cl)c2)c1 [Example 104, 3-(3-cyanophenyl)-N-(3,4-dichlorophenethyl)propiolamide] | 84 | 
3 | O=C(C#Cc1ccc(F)cc1F)NCCc1cccs1 [Example 117, 3-(2,4-difluorophenyl)-N-(2-(thiophene-2-yl)ethyl)propiolamide] | 33 | 
4 | O=C(C#Cc1ccccc1F)NCCc1cccs1 [Example 118, 3-(2-fluorophenyl)-N-(2-(thiophene-2-yl)ethyl)propiolamide] | 67 | 
5 | COc1cccc(C#CC(=O)NCCc2ccccc2OC)c1 [Example 132, N-(2-methoxyphenethyl)-3-(3-methoxyphenyl)propiolamide] | 83 | 
6 | COc1cccc(C#CC(=O)NCCc2ccc(Cl)cc2)c1 [Example 133, N-(4-chlorophenethyl)-3-(3-methoxyphenyl)propiolamide] | 65 | 
7 | COc1ccccc1CCNC(=O)C#Cc1ccc(F)c(C)c1 [Example 134, 3-(4-fluoro-3-methylphenyl)-N-(2-methoxyphenethyl)propiolamide] | 77 | 
8 | Cc1cc(C#CC(=O)NCCc2ccc(Cl)cc2)ccc1F [Example 135, N-(4-chlorophenethyl)-3-(4-fluoro-3-methylphenyl)propiolamide] | 44 | 
9 | COc1ccccc1CCNC(=O)C#Cc1ccccc1 [Example 136, N-(2-methoxyphenethyl)-3-phenylpropiolamide] | 110 | 
10 | O=C(C#Cc1ccccc1)NCCc1ccc(Cl)cc1 [Example 137, N-(4-chlorophenethyl)-3-phenylpropiolamide] | 67 | 
11 | COc1ccccc1CCNC(=O)C#Cc1cccc(C)c1 [Example 138, N-(2-methoxyphenethyl)-3-m-tolylpropiolamide] | 97 | 
12 | Cc1cccc(C#CC(=O)NCCc2ccc(Cl)cc2)c1 [Example 139, N-(4-chlorophenethyl)-3-m-tolylpropiolamide] | 91 | 
13 | O=C(C#Cc1ccc(F)cc1)NCCc1ccc(Cl)cc1 [Example 140, N-(4-chlorophenethyl)-3-(4-fluorophenyl)propiolamide] | 53 | 
14 | O=C(C#Cc1ccccc1F)NCCc1cccc(Cl)c1 [Example 148, N-(3-chlorophenethyl)-3-(2-fluorophenyl)propiolamide] | 79 | 
15 | Cc1ccc(CCNC(=O)C#Cc2ccccc2F)cc1 [Example 149, 3-(2-fluorophenyl)-N-(4-methylphenethyl)propiolamide] | 57 | 
16 | O=C(C#Cc1ccccc1F)NCCc1ccc(F)cc1 [Example 151, N-(4-fluorophenethyl)-3-(2-fluorophenyl)propiolamide] | 66 | 
17 | COc1ccccc1CCNC(=O)C#Cc1cccs1 [Example 189, N-(2-methoxyphenethyl)-3-(thiophene-2-yl)propiolamide] | 85 | 
18 | O=C(C#Cc1cccs1)NCCc1ccc(Cl)cc1 [Example 190, N-(4-chlorophenethyl)-3-(thiophene-2-yl)propiolamide] | 65 | 
19 | COc1ccccc1CCNC(=O)C#Cc1cccc(C#N)c1 [Example 191, 3-(3-cyanophenyl)-N-(2-methoxyphenethyl)propiolamide] | 96 | 
20 | N#Cc1cccc(C#CC(=O)NCCc2ccc(Cl)cc2)c1 [Example 192, N-(4-chlorophenethyl)-3-(3-cyanophenyl)propiolamide] | 91 | 
21 | COc1ccccc1CCNC(=O)C#Cc1ccc(F)cc1F [Example 193, 3-(2,4-difluorophenyl)-N-(2-methoxyphenethyl)propiolamide] | 31 | 
22 | COc1ccccc1CCNC(=O)C#Cc1ccccc1F [Example 194, 3-(2-fluorophenyl)-N-(2-methoxyphenethyl)propiolamide] | 81 | 
23 | O=C(C#Cc1cccc(Cl)c1)NCCc1ccccc1F [Example 215, 3-(3-chlorophenyl)-N-(2-fluorophenethyl)propiolamide] |  | 8.05
24 | O=C(C#Cc1cccc(Cl)c1)NCCc1cccc(F)c1 [Example 216, 3-(3-chlorophenyl)-N-(3-fluorophenethyl)propiolamide] |  | 7.92
25 | O=C(C#Cc1cccc(Cl)c1)NCCc1ccc(F)cc1 [Example 217, 3-(3-chlorophenyl)-N-(4-fluorophenethyl)propiolamide] |  | 6.85

Row | SMILES | inhibition at 10 µM [%] | pIC50
26 | CN(CCc1ccccc1F)C(=O)C#Cc1cccc(Cl)c1 [Example 218, 3-(3-chlorophenyl)-N-(2-fluorophenethyl)-N-methylpropiolamide] |  | 7.80
27 | O=C(C#Cc1cccc(Cl)c1)NCCc1cccc(C(F)(F)F)c1 [Example 219, 3-(3-chlorophenyl)-N-(3-(trifluoromethyl)phenethyl)propiolamide] |  | 6.35
28 | CN(CCc1ccc(F)cc1)C(=O)C#Cc1cccc(Cl)c1 [Example 220, 3-(3-chlorophenyl)-N-(4-fluorophenethyl)-N-methylpropiolamide] |  | 8.05
29 | CN(CCc1cccc(F)c1)C(=O)C#Cc1cccc(Cl)c1 [Example 221, 3-(3-chlorophenyl)-N-(3-fluorophenethyl)-N-methylpropiolamide] |  | 8.10
30 | CN(CCc1cccc(C(F)(F)F)c1)C(=O)C#Cc1cccc(Cl)c1 [Example 222, 3-(3-chlorophenyl)-N-methyl-N-(3-(trifluoromethyl)phenethyl)propiolamide] |  | 7.12
31 | Cc1ccccc1CCNC(=O)C#Cc1cccc(Cl)c1 [Example 223, 3-(3-chlorophenyl)-N-(2-methylphenethyl)propiolamide] |  | 7.89
32 | Cc1cccc(CCNC(=O)C#Cc2cccc(Cl)c2)c1 [Example 224, 3-(3-chlorophenyl)-N-(3-methylphenethyl)propiolamide] |  | 7.40
33 | Cc1ccc(CCNC(=O)C#Cc2cccc(Cl)c2)cc1 [Example 225, 3-(3-chlorophenyl)-N-(4-methylphenethyl)propiolamide] |  | 6.68
34 | Cc1ccccc1CCN(C)C(=O)C#Cc1cccc(Cl)c1 [Example 226, 3-(3-chlorophenyl)-N-methyl-N-(2-methylphenethyl)propiolamide] |  | 8.10
35 | Cc1cccc(CCN(C)C(=O)C#Cc2cccc(Cl)c2)c1 [Example 227, 3-(3-chlorophenyl)-N-methyl-N-(3-methylphenethyl)propiolamide] |  | 7.82
36 | Cc1ccc(CCN(C)C(=O)C#Cc2cccc(Cl)c2)cc1 [Example 228, 3-(3-chlorophenyl)-N-methyl-N-(4-methylphenethyl)propiolamide] |  | 6.55
37 | O=C(C#Cc1cccc(Cl)c1)NCCn1cccc1 [Example 230, N-(2-(1H-pyrrol-1-yl)ethyl)-3-(3-chlorophenyl)propiolamide] |  | 6.72
38 | O=C(C#Cc1cccc(Cl)c1)NCCn1cccn1 [Example 231, N-(2-(1H-pyrazol-1-yl)ethyl)-3-(3-chlorophenyl)propiolamide] |  | 6.85
39 | CN(CCn1cccc1)C(=O)C#Cc1cccc(Cl)c1 [Example 233, N-(2-(1H-pyrrol-1-yl)ethyl)-3-(3-chlorophenyl)-N-methylpropiolamide] |  | 7.51
40 | CN(CCn1cccn1)C(=O)C#Cc1cccc(Cl)c1 [Example 234, N-(2-(1H-pyrazol-1-yl)ethyl)-3-(3-chlorophenyl)-N-methylpropiolamide] |  | 7.29
41 | O=C(C#Cc1cccc(Cl)c1)NCCc1cccnc1 [Example 235, 3-(3-chlorophenyl)-N-(2-(pyridine-3-yl)ethyl)propiolamide] |  | 8.15
42 | CN(CCc1ccccn1)C(=O)C#Cc1cccc(Cl)c1 [Example 236, 3-(3-chlorophenyl)-N-methyl-N-(2-(pyridine-2-yl)ethyl)propiolamide] |  | 7.54
43 | CCN(CCc1ccccc1)C(=O)C#Cc1cccc(Cl)c1 [Example 237, 3-(3-chlorophenyl)-N-ethyl-N-phenethylpropiolamide] |  | 7.36
44 | CC(C)N(CCc1ccccc1)C(=O)C#Cc1cccc(Cl)c1 [Example 238, 3-(3-chlorophenyl)-N-isopropyl-N-phenethylpropiolamide] |  | 7.15
45 | O=C(C#Cc1cccc(Cl)c1)N(CCc1ccccc1)C1CC1 [Example 239, 3-(3-chlorophenyl)-N-cyclopropyl-N-phenethylpropiolamide] |  | 6.55
46 | COc1ccccc1CCN(C)C(=O)C#Cc1cccc(Cl)c1 [Example 240, 3-(3-chlorophenyl)-N-(2-methoxyphenethyl)-N-methylpropiolamide] |  | 7.92
47 | CC(Cc1ccccc1)N(C)C(=O)C#Cc1cccc(Cl)c1 (stereo not shown) [Example 241, 3-(3-chlorophenyl)-N-methyl-N-(1-phenylpropane-2-yl)propiolamide] |  | 7.89
48 | CC(Cc1ccccc1)NC(=O)C#Cc1cccc(Cl)c1 (stereo not shown) [Example 242, 3-(3-chlorophenyl)-N-(1-phenylpropane-2-yl)propiolamide] |  | 8.70
49 | CN(CCc1cccnc1)C(=O)C#Cc1cccc(Cl)c1 [Example 243, 3-(3-chlorophenyl)-N-methyl-N-(2-(pyridine-3-yl)ethyl)propiolamide] |  | 7.92

From US20090182020A1, “SUBSTITUTED BIS(HETERO)AROMATIC N--ETHYLPROPIOLAMIDES AND USE THEREOF FOR PRODUCTION OF MEDICAMENTS” (GRUNENTHAL GMBH, priority 2005, published 2009)
